Test results published in patent publication US20070010478A1 (priority 2005, published 2007).

Experiments:
[1] = target: P450 isoenzyme 3A4 (Homo sapiens, UniProt P08684); settings: cited from earlier work
[2] = target: T1, P-gp (Homo sapiens, UniProt P08183); assay: cellular P-gp function, DiOC2 accumulation assay with flow cytometry, in AML patients; type: in vivo; settings: circulating NK cells and leukemic blasts; 700 mg/day continuous iv infusion
T1 construct: endogenous in cells; host or cells: circulating NK cells and leukemic blasts of AML patients
T1 sequence (P08183 whole entry, the tested form may be a part): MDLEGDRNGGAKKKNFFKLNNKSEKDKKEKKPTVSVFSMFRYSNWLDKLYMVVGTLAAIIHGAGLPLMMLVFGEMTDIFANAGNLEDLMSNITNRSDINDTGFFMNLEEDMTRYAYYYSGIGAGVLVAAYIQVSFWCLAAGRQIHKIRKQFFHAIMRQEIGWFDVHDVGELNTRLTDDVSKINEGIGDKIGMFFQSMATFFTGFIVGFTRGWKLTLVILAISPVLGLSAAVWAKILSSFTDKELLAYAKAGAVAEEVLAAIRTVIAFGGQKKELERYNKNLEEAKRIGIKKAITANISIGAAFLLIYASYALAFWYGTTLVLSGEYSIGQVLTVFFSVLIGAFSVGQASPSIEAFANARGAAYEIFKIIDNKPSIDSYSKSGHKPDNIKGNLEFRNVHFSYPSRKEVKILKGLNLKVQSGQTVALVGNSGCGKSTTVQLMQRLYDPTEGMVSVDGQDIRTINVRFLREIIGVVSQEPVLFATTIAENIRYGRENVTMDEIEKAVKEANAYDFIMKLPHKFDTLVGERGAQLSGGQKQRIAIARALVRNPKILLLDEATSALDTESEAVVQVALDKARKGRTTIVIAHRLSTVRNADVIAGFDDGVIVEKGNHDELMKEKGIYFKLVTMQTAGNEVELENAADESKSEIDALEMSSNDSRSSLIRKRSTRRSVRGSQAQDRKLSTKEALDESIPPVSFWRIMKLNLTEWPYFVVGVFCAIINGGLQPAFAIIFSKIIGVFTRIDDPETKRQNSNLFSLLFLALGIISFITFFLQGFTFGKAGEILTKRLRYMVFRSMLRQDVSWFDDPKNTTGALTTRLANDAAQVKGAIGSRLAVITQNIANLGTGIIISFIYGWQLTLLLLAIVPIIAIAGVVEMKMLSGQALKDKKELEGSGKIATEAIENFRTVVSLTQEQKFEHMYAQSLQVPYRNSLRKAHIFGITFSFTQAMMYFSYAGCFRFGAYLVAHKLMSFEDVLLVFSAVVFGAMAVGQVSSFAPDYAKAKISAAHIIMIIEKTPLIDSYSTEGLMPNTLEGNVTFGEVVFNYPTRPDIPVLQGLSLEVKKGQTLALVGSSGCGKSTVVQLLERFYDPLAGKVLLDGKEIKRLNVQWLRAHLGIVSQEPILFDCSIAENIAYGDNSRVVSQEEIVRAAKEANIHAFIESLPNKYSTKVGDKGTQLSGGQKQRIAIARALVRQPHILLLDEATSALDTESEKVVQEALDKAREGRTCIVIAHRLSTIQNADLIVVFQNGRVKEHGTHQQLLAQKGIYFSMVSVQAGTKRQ
Experimental: Cytarabine was also administered (100 mg/m^2/day) starting after the first dose of daunorubicin as a continuous intravenous infusion on days 1-7. Blood samples were taken at intervals for pharmacokinetic and pharmacodynamic studies. Pharmacokinetic drug determinations were conducted by HPLC. Pharmacodynamic assessments of cellular P-gp function were conducted using an accumulation assay with DiOC2 and flow cytometry. P-gp function was assessed on circulating natural killer (NK) cells and leukemic blasts. […] Means of 3 patients for each time point are shown.

Chain of P450 isoenzyme 3A4 (P08684 whole entry, the tested form may be a part): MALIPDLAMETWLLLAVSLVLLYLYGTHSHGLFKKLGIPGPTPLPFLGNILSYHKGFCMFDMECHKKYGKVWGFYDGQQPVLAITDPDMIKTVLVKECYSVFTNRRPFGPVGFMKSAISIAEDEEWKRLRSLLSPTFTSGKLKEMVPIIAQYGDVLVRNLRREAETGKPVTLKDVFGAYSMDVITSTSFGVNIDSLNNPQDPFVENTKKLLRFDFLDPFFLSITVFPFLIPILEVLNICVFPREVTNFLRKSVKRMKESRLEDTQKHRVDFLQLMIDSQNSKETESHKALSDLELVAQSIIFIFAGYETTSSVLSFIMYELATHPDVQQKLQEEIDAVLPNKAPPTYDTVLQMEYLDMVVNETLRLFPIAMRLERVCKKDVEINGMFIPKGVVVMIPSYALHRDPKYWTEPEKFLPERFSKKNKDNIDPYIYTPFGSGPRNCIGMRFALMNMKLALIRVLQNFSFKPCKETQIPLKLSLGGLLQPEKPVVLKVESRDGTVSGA

## COc1cc(C(=O)C(=O)N2CCCC[C@H]2C(=O)OC(CCCc2cccnc2)CCCc2cccnc2)cc(OC)c1OC [biricodar]
[1]
  substrate for the P450 isoenzyme 3A4: substrates for the P450 isoenzyme 3A4

## O[C@@H](COc1cccc2ncccc12)CN1CCN([C@@H]2c3ccccc3[C@@H]3[C@H](c4ccccc42)C3(F)F)CC1 [zosuquidar]
[2]
  time to potent inhibition of P-gp function after start of zosuquidar infusion: ≤ 2 h

## C/C=C/C[C@@H](C)C(=O)[C@H]1C(=O)N[C@@H](C(C)C)C(=O)N(C)CC(=O)N(C)[C@@H](CC(C)C)C(=O)N[C@@H](C(C)C)C(=O)N(C)[C@@H](CC(C)C)C(=O)N[C@@H](C)C(=O)N[C@H](C)C(=O)N(C)[C@@H](CC(C)C)C(=O)N(C)[C@@H](CC(C)C)C(=O)N(C)[C@@H](C(C)C)C(=O)N1C [valspodar]
[1]
  substrate for the P450 isoenzyme 3A4: substrates for the P450 isoenzyme 3A4
